Results: paper PMC9098524, “Structural basis of ion – substrate coupling in the Na^+-dependent dicarboxylate transporter VcINDY” (Nature Communications, 2022)

Target: T1, VcINDY (Vibrio cholerae, UniProt Q9KNE0)
T1 construct: gene VC_A0025
Assay: intrinsic tryptophan fluorescence quenching ([…] nm excitation, […] nm emission), quadratic binding fit
Details: read-out: apparent Kd

O=C(O)CCC(=O)O [succinate]
Kd: 92.2 ± 47.4 µM
